From ChEMBL document CHEMBL4706612 (Eur J Med Chem, 2021)

What was measured:
[1] = Inhibition of Vibrio parahaemolyticus MetAp1a by Morrison method
[2] = Inhibition of Vibrio cholerae MetAp1a by Morrison method
[3] = Inhibition of human MetAp1a by Morrison method
[4] = Inhibition of Vibrio coralliilyticus MetAp1a by Morrison method

CCCc1nc(-c2ccccn2)nc(OC(=O)N(C)C)c1Cc1c(F)cccc1Cl
Ki [1]: 600 nM
Ki [2]: 70 nM
Ki [3]: 180 nM

CSc1nc(-c2ccccn2)nc(N)c1C#N
Ki [1]: 130 nM
Ki [2]: 680 nM
Ki [3]: 210 nM

Nc1cc(O)nc(-c2ccccn2)n1
Ki [1]: 240 nM
Ki [2]: 80 nM
Ki [3]: 650 nM
Ki [4]: 11900 nM

Oc1cc(C(F)(F)F)nc(-c2ccccn2)n1
Ki [1]: 90 nM
Ki [2]: 150 nM
Ki [3]: 100 nM
Ki [4]: 13100 nM

CCOC(=O)c1cnc(-c2ccccn2)nc1O
Ki [1]: 1420 nM
Ki [2]: 110 nM
Ki [3]: 510 nM
Ki [4]: 5930 nM

Cc1nc(-c2ccc(C(F)(F)F)cn2)nc(Sc2ccc(Cl)cc2)c1Cl
Ki [1]: 16200 nM
Ki [2]: 6960 nM

COc1ccc(C(=O)CSc2nc(-c3ccccn3)nc(C)c2Cl)cc1
Ki [1]: 5710 nM
Ki [2]: 1430 nM

C=CC(C)c1c(O)nc(-c2ccccn2)nc1CCC (centres undefined)
Ki [1]: 150 nM
Ki [2]: 310 nM
Ki [3]: 80 nM
Ki [4]: 7240 nM

FC(F)(F)c1nc(-c2ccccn2)ncc1-c1nnnn1-c1ccc(Cl)cc1
Ki [1]: 10800 nM

Cc1nc(-c2ccccn2)nc(N2CCOCC2)c1Cl
Ki [1]: 1620 nM
Ki [2]: 880 nM
Ki [3]: 110 nM

COCc1nc(-c2ccccn2)nc(O)c1CC1CC1
Ki [1]: 250 nM
Ki [2]: 160 nM
Ki [3]: 290 nM
Ki [4]: 27500 nM

Cc1cc(Oc2ccc(Cl)cc2)nc(-c2ccccn2)n1
Ki [1]: 350 nM
Ki [2]: 730 nM
Ki [3]: 230 nM

Cc1nc(-c2ccccn2)nc(N2CCN(c3ncnc4scc(-c5ccccc5)c34)CC2)c1Cl
Ki [1]: 1950 nM
Ki [2]: 480 nM

Oc1nc(-c2ccccn2)nc2c1CSCC2
Ki [1]: 24000 nM
Ki [2]: 39000 nM
Ki [3]: 760 nM
Ki [4]: 7650 nM

Cc1nc(-c2ccccn2)nc(O)c1CC1CC1
Ki [1]: 80 nM
Ki [2]: 320 nM
Ki [3]: 130 nM
Ki [4]: 9290 nM

FC(F)(F)c1cccc(-c2nc(-c3ccccn3)ncc2-c2nnnn2-c2ccccc2)c1
Ki [1]: 2730 nM
Ki [2]: 1130 nM
Ki [3]: 43900 nM

Cc1nc(-c2ccc(C(F)(F)F)cn2)nc(N2CCCCC2)c1Cl
Ki [2]: 4610 nM
Ki [3]: 55800 nM

CC(=O)Nc1cc(O)nc(-c2ccccn2)n1
Ki [1]: 1110 nM
Ki [2]: 90 nM
Ki [3]: 1480 nM
Ki [4]: 5120 nM

FC(F)(F)c1cc(Nc2cc(Cl)cc(Cl)c2)nc(-c2ccccn2)n1
Ki [1]: 140 nM
Ki [2]: 60 nM

Cc1nc(-c2ccccn2)nc(O)c1Cc1c(Cl)cccc1Cl
Ki [1]: 160 nM
Ki [2]: 230 nM
Ki [4]: 10200 nM

c1ccc(-c2ccccn2)nc1
Ki [1]: 2910 nM
Ki [2]: 2840 nM
Ki [3]: 390 nM
Ki [4]: 2830 nM

Cc1nc(-c2ccccn2)nc(NCCNc2cccc(C(F)(F)F)n2)c1Cl
Ki [1]: 7910 nM
Ki [2]: 3560 nM

Cc1cc(Oc2cc(Cl)cc(Cl)c2)nc(-c2ccccn2)n1
Ki [1]: 280 nM
Ki [2]: 50 nM
Ki [3]: 4210 nM

Cc1nc(-c2ccccn2)nc(SCC(=O)N2CCOCC2)c1Cl
Ki [1]: 12600 nM
Ki [2]: 7960 nM
Ki [3]: 170 nM

Cc1nc(-c2ccccn2)nc(N2CCCN(Cc3ccc(Cl)cc3Cl)CC2)c1Cl
Ki [1]: 3230 nM
Ki [2]: 730 nM
Ki [3]: 850 nM

CC(C)S(=O)(=O)c1cnc(-c2ccccn2)nc1N
Ki [1]: 35000 nM
Ki [2]: 60 nM
Ki [3]: 220 nM
Ki [4]: 49300 nM

Cc1nc(-c2ccccn2)nc(NCCc2ccccc2)c1Cl
Ki [1]: 3730 nM
Ki [2]: 510 nM

Cc1nc(-c2ccccn2)nc(N2CCN(CCO)CC2)c1Cl
Ki [1]: 3710 nM
Ki [2]: 600 nM

Cc1nc(-c2ccccn2)nc(N(C)c2ccccc2)c1Cl
Ki [1]: 240 nM
Ki [2]: 490 nM
Ki [3]: 770 nM

Cc1nc(-c2ccccn2)nc(N2CCN(C)CC2)c1Cl
Ki [1]: 480 nM
Ki [2]: 200 nM
Ki [3]: 290 nM

Cc1nc(-c2ccccn2)nc(SCC(=O)c2ccc(F)cc2)c1Cl
Ki [1]: 1900 nM
Ki [2]: 1890 nM
Ki [3]: 2350 nM

Cc1cc(O)nc(-c2ccccn2)n1
Ki [1]: 210 nM
Ki [2]: 300 nM
Ki [3]: 620 nM
Ki [4]: 6800 nM

CCCCCc1c(C)nc(-c2ccccn2)nc1O
Ki [1]: 3310 nM
Ki [2]: 720 nM
Ki [3]: 70 nM
Ki [4]: 11600 nM

Cc1nc(-c2ccccn2)nc(NC2CCN(c3ncc(C(F)(F)F)cc3Cl)CC2)c1Cl
Ki [1]: 4560 nM
Ki [2]: 4780 nM

Cc1cc(S)nc(-c2ccccn2)n1
Ki [1]: 200 nM
Ki [2]: 120 nM
Ki [3]: 150 nM
Ki [4]: 16200 nM

CCN(CC)C(=O)Oc1nc(-c2ccccn2)nc(COC)c1CC1CC1
Ki [1]: 2810 nM
Ki [2]: 2470 nM
Ki [3]: 450 nM

CCCc1nc(-c2ccccn2)nc(O)c1CC1CC1
Ki [1]: 1130 nM
Ki [2]: 70 nM
Ki [3]: 1380 nM
Ki [4]: 9130 nM
